In patent publication US11634391B2, “Compounds which are inhibitors of Notum” (UCL BUSINESS LTD, priority 2018, dated 2023):
pIC50: −log10 of the molar value.

Target: notum carboxyesterase enzyme (Homo sapiens (Human), UniProt Q6P988)
Assay: Biochemical Notum Enzymatic Activity Assay (OPTS substrate, fluorescence)
Settings: 2 μM OPTS solution, 2.38 nM notum enzyme solution, 1 hour incubation at room temperature, fluorescence ex 485 nm / em 520 nm; n≥2
Text: Plate layout and measured fluorescence values were input into Dotmatics Studies data management tool.

Sequence of notum carboxyesterase enzyme (Q6P988 20-496): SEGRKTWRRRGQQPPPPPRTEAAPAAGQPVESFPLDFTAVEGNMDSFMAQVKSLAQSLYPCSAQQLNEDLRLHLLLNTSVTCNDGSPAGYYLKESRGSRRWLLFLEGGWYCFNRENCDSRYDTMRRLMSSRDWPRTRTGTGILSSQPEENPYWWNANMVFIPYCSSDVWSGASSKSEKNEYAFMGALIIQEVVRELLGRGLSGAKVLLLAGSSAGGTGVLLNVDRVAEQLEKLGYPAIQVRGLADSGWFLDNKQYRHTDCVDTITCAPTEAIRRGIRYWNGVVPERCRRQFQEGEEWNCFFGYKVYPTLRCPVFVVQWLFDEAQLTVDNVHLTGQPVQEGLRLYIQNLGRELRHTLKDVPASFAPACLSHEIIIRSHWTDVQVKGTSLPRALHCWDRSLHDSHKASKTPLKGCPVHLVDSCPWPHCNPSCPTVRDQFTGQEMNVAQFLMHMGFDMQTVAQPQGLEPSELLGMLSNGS

SMILES | pIC50
CC(O)Cc1cn(-c2ccc(Cl)c(C(F)(F)F)c2Cl)nn1 (centres unmarked) [Compound 305, 1-[1-[2,4-dichloro-3-(trifluoromethyl)phenyl]triazol-4-yl]propan-2-ol] | 5.88
FC(F)(F)c1c(Cl)ccc(-c2c[nH]nn2)c1Cl [Compound 306, 4-[2,4-dichloro-3-(trifluoromethyl)phenyl]-1H-triazole] | 8.54
FC(F)(F)c1c(Cl)cnc(-n2ccnn2)c1Cl [Compound 307, 3,5-dichloro-2-(triazol-1-yl)-4-(trifluoromethyl)pyridine] | 8.09
FC(F)(F)c1cc(-n2ccnn2)cc(Cl)c1Cl [Compound 309, 1-[3,4-dichloro-5-(trifluoromethyl)phenyl]triazole] | 6.97
CC(O)c1cn(-c2ccc(Cl)c(C(F)(F)F)c2Cl)nn1 (centres unmarked) [Compound 310, 1-[1-[2,4-dichloro-3-(trifluoromethyl)phenyl]triazol-4-yl]ethanol] | 5.74
